From US10010541B2, “Modulation of tissue transglutaminase activation in disease” (The Board of Trustees of the Leland Stanford Junior …, priority 2014, dated 2018)
Where two headings read alike, the source gives them in different places.

How the values were obtained:
TG2 [1] = biological target: T1, TG2 (Mus musculus, UniProt P21981); details: cited from earlier work
T1 construct: host or cells: mice (in vivo)
T1 sequence (P21981 1-686): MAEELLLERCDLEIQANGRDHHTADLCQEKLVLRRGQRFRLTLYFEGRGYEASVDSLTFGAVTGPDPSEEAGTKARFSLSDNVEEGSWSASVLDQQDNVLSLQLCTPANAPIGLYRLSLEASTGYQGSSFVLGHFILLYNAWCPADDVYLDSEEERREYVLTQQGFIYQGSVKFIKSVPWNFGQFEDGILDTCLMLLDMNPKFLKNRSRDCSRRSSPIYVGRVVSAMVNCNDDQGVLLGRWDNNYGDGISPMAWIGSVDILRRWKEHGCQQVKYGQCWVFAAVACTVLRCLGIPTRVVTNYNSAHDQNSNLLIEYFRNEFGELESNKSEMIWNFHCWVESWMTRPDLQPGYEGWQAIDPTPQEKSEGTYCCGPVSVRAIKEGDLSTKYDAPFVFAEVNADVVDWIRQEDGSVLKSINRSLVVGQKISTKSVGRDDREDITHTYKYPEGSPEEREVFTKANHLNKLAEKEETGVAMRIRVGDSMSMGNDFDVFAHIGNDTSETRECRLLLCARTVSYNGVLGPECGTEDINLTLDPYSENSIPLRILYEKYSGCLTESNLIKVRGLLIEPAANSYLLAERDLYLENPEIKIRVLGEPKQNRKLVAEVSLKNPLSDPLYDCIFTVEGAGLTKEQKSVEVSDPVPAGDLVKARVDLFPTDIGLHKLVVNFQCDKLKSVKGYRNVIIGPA

TG2 [2] = biological target: T2, TG2 (Homo sapiens, UniProt P21980); details: cell culture; cited from earlier work
T2 sequence (P21980 1-687): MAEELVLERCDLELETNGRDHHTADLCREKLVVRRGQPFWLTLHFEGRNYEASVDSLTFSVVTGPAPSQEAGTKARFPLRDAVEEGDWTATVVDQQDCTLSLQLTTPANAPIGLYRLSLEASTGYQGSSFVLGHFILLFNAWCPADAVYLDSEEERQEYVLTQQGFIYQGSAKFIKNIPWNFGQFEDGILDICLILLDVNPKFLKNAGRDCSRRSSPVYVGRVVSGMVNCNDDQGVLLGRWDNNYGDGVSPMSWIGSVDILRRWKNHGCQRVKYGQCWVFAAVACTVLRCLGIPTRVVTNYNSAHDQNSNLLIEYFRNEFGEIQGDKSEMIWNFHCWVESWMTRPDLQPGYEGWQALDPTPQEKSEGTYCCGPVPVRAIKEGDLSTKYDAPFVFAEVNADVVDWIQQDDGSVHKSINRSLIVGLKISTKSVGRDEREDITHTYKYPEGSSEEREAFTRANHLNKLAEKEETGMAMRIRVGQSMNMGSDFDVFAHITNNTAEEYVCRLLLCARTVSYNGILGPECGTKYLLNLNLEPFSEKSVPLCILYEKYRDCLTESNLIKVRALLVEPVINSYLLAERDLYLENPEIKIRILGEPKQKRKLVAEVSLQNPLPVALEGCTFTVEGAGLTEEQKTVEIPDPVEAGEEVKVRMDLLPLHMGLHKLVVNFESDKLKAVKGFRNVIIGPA

[3] = test system: proinflammatory cytokines IL-6, PAI-1 and MIP1α; assay: circulating proinflammatory cytokines in LPS-induced murine sepsis (ELISA); type: in vivo, mice; details: septic mice (LPS 5 mg/kg iv); 1.5 mg/kg ip level; plasma at 3 hours
Description: FIG. 3: The TG2 inhibitor CK996 reduces the proinflammatory cytokine load in septic mice at doses as low as 1.5 mg/kg: The graphs display the absolute circulating levels of the proinflammatory cytokines IL-6, PAI-1 and MIP1α in septic male BL6 mice as a function of the dose of intraperitoneally administered CK996 or ERW1041E. In each graph, the right y-axis depicts the relative levels of the respective cytokines over their background level in our control cohort. All septic mice in this study received lipopolysaccharide (LPS, 5 mg/kg i.v., at t=0) and either a TG2 inhibitor (CK996 or ERW1041E at 50, 15, 5.0 and 1.5 mg/kg i.p., at t=0 and 60 min) in vehicle (PBS with 5% DMSO, 2% Tween-80 and 2.5% hydroxypropyl-beta-cyclodextrin) or, for the septic control cohort, vehicle alone. An additional cohort defining the baseline cytokine levels received only intravenous vehicle and intraperitoneal inhibitor vehicle, respectively. At 3 hours the mice were euthanized and plasma collected in lithium heparin tubes. The levels of the respective proinflammatory cytokines were quantified using commercial ELISA kits according to the manufacturers' instructions. […]
Having established that intraperitoneal administration of CK996 could suppress TG2 activity in septic mice, we next sought to determine whether this pharmacologic intervention had any effect on the circulating levels of the key proinflammatory cytokines in sepsis. To this end, we administered CK996 in doses of 1.5, 5.0, 15 or 50 mg/kg intraperitoneally to septic mice (5 mg/kg LPS, iv) and measured the level of the proinflammatory cytokines IL-6, PAI-1 and MIP1α in plasma that was collected at 3 hours after infusion of LPS.
We therefore co-administered recombinant human thioredoxin protein (10 mg/kg, ip) along with CK996 (50 mg/kg, ip) to septic mice (5 mg/kg, iv) and quantified the load of proinflammatory cytokines as above.

TG1 = biological target: T3, TG1 (Homo sapiens, UniProt P22735); details: cited from earlier work
T3 sequence (P22735 1-817): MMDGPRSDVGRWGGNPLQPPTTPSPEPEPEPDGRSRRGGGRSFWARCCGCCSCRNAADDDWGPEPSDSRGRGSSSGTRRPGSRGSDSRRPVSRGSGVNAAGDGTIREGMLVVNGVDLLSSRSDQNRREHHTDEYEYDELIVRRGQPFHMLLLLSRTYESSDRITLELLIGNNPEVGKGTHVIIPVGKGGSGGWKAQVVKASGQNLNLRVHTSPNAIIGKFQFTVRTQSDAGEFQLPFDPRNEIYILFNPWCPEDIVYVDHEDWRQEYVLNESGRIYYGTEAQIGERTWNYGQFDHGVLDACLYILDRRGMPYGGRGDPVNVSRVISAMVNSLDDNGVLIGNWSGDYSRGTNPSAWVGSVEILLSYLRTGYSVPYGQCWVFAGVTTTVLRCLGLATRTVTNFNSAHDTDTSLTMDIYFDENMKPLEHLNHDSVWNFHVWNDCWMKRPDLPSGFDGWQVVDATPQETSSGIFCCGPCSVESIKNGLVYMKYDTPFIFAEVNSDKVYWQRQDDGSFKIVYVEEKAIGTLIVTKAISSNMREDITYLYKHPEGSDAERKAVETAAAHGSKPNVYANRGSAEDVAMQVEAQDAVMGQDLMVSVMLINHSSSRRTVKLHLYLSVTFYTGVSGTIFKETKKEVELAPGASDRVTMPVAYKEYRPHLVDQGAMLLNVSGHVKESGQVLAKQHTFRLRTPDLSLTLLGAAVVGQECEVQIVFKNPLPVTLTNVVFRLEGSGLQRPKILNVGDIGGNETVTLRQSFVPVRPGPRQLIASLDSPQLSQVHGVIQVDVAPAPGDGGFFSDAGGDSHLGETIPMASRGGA

TG2 [4] = biological target: T2, TG2; details: cited from earlier work
TG2 [5] = biological target: T1, TG2; details: poly-I:C induced intestinal injury in mice; cited from earlier work

**Q.** Which “catalytic activity of TG2” value (TG2 [1]; hypoxia-induced murine pulmonary hypertension) does the source give for O=C(NC[C@@H]1CC(Br)=NO1)[C@@H]1CCCN1C(=O)OCc1cnc2ccccc2c1 [ERW1041E] here?
**A.** Its value is “capable of blocking the catalytic activity of TG2”.

**Q.** And the tolerability (TG2 [1]; twice daily administration for several weeks)?
**A.** Its tolerability is “well tolerated”.

**Q.** What about the “catalytic activity of TG2” value (TG2 [2]) of the same molecule?
**A.** The value was “capable of blocking the catalytic activity of TG2”.

**Q.** And the “circulating levels of IL-6, PAI-1 and MIP1α” value [3]?
**A.** Its value is “no effect”.

**Q.** What about the “potency against TG1 relative to TG2” value (TG1) of the same molecule?
**A.** The value was “comparably potent”.

**Q.** And the “potency as inhibitor of TG2” value (TG2 [4])?
**A.** The value was “moderately potent”.

**Q.** What about the “catalytic activity of TG2” value (TG2 [5]) of the same molecule?
**A.** The value was “capable of blocking the catalytic activity of TG2”.
